Tests used:
[1] = test system: Pseudomonas aeruginosa (S-2838 strain); test: Multidrug-resistant Pseudomonas aeruginosa urinary tract infection model test in mice; type: in vivo; settings: ICR female mice, 25 mg/kg once by tail vein 2 hours after infection, kidney count on the day after infection
Description: The mice used were ICR female SPF mice (5 weeks old: 5 mice per group). The inoculum solution was prepared by suspending a clinical isolate of Pseudomonas aeruginosa (S-2838 strain) cultured overnight at 37° C. on a Mueller-Hinton agar plate in sterile saline. The infection was induced by inoculating 0.2 mL (about 10^3 CFU/mouse) of the inoculum solution into the urethra of each mouse. The test compound was dissolved in sterile saline and given once by tail vein administration 2 hours after infection. The count of viable cells in the kidney on the day after infection was recorded and the mean value was calculated.

[2] = Stability in 100 mmol/L tris-hydrochloric acid buffer (pH 7.4); type: physicochemical; settings: compared to Example 1
[3] = Solubility test (visual dissolution in physiological saline; saturated solubility); type: physicochemical; settings: saline or isotonic, thermodynamic from solid, 1.2 mg taken, dissolution confirmed visually
Description: The compounds of Examples 1 and 2 were taken in an amount of 1.2 mg, physiological saline was added during stirring until dissolution could be confirmed visually, and the solubility was calculated.

| solubility [3] [mg/mL] | Structure (SMILES) | also measured |
| --- | --- | --- |
| – | CNC(=O)[C@@](C)(C(=O)NO)N(C)C(=O)c1ccc(C#Cc2ccc([C@H](O)COP(=O)(O)O)cc2)cc1 [Comparative Example 1, (S)-2-hydroxy-2-(4-((4-(((S)-1-(hydroxyamino)-2-methyl-3-(methylamino)-1,3-dioxopropan-2-yl)(methyl)carbamoyl)phenyl)ethynyl)phenyl)ethyl phosphate] | decrease of count of viable cells in the kidney compared with control group [1]: < 4 log CFU/kidney |
| – | CNC(=O)[C@@](C)(C(=O)NOC(=O)CCC(=O)O)N(C)C(=O)c1ccc(C#Cc2ccc([C@H](O)CO)cc2)cc1 [Comparative Example 2, 4-(((S)-2-(4-((4-((S)-1,2-dihydroxyethyl)phenyl)ethynyl)-N-methylbenzamide)-2-methy 1-3-(methylamino)-3-oxopropanamide)oxy)-4-oxobutanoic acid] | stability in buffer (decomposition to compound A) [2]: easily decomposed |
| > 100 | CNC(=O)[C@@](C)(C(=O)NOP(=O)(O)O)N(C)C(=O)c1ccc(C#Cc2ccc([C@H](O)CO)cc2)cc1 [Example 1, (((S)-2-(4-((4-((S)-1,2-dihydroxyethyl)phenyl)ethynyl)-N-methylbenzamide)-2-methyl-3-(methylamino)-3-oxopropanamide)oxy)phosphonic acid] | – |
| > 100 | CNC(=O)[C@@](C)(C(=O)NOCOP(=O)(O)O)N(C)C(=O)c1ccc(C#Cc2ccc([C@H](O)CO)cc2)cc1 [Example 2, (((S)-2-(4-((4-((S)-1,2-dihydroxyethyl)phenyl)ethynyl)-N-methylbenzamide)-2-methyl-3-(methylamino)-3-oxopropanamide)oxy)methyl dihydrogen phosphate] | – |

— patent publication US20200062789A1, “HYDROXAMIC ACID PRODRUG COMPOUND OR SALT THEREOF, LYOPHILIZED FORMULATION, LPXC INHIBITOR, AND ANTIBACTERIAL AGENT” (FUJIFILM Toyama Chemical Co., Ltd., priority 2017, published 2020)
